# What was measured:
# Assay type in all cases: biochemical
# GST-JAK3 enzyme = target: T1, GST-JAK3 enzyme (Homo sapiens, UniProt P52333); experiment: JAK3 Kinase Assay Protocol (Caliper); conditions: Caliper LabChip assay, ATP 8 μM, fluoresceinated peptide; read-out: LLE_JAK3_CAL (IC50)
# T1 sequence (P52333 1-1124): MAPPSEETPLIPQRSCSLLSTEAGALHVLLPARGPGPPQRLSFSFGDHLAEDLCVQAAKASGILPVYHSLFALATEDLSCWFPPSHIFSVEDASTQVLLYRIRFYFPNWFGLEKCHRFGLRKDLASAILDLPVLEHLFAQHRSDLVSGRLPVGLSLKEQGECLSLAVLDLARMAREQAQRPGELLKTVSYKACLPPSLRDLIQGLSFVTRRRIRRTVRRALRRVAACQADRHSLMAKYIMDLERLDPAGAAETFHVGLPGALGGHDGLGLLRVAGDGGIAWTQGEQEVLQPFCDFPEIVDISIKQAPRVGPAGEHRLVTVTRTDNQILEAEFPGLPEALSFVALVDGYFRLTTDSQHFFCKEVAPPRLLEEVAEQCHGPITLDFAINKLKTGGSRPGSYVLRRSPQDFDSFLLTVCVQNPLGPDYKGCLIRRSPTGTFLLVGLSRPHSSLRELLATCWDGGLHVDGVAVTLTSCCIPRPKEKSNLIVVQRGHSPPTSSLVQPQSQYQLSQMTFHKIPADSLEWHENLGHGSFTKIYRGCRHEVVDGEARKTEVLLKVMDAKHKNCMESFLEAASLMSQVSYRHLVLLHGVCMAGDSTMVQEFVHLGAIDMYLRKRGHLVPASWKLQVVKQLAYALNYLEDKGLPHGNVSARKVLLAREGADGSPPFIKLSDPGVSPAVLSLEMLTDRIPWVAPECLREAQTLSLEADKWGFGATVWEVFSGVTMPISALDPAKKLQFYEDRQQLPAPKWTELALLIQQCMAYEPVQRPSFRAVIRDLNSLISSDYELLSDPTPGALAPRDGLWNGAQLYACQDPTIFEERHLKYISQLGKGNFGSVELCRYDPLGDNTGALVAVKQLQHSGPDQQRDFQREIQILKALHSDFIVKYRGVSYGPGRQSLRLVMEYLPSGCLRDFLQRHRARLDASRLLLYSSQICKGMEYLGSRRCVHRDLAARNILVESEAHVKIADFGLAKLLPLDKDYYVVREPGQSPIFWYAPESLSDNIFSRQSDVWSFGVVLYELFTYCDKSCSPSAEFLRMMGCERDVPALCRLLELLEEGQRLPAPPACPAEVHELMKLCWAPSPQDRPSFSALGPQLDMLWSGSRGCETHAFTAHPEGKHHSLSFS
# Experimental: The assay reactions were performed in U-bottom 384-well plates. […] The reaction was initiated by the combination of GST-JAK3 enzyme with substrates and test compounds. The reactions were incubated at room temperature for 3 hours and terminated by adding 60 μl of 35 mM EDTA to each sample. Each reaction mixture was analyzed on the Caliper LabChip 3000 (Caliper, Hopkinton, Mass.) by electrophoretic separation of the fluorescent substrate and phosphorylated product. […] Compounds were dissolved at 10 mM in dimethylsulfoxide (DMSO) and evaluated at eleven concentrations. IC50 values were derived by non-linear regression analysis.
# GST-JAK1 enzyme = GST-JAK1 enzyme (Homo sapiens, UniProt P23458); experiment: JAK1 Kinase Assay Protocol; conditions: Caliper LabChip assay, ATP 100 μM, fluoresceinated peptide; read-out: LLE_JAK1 (IC50)
# GST-JAK1 enzyme, sequence (P23458 whole entry): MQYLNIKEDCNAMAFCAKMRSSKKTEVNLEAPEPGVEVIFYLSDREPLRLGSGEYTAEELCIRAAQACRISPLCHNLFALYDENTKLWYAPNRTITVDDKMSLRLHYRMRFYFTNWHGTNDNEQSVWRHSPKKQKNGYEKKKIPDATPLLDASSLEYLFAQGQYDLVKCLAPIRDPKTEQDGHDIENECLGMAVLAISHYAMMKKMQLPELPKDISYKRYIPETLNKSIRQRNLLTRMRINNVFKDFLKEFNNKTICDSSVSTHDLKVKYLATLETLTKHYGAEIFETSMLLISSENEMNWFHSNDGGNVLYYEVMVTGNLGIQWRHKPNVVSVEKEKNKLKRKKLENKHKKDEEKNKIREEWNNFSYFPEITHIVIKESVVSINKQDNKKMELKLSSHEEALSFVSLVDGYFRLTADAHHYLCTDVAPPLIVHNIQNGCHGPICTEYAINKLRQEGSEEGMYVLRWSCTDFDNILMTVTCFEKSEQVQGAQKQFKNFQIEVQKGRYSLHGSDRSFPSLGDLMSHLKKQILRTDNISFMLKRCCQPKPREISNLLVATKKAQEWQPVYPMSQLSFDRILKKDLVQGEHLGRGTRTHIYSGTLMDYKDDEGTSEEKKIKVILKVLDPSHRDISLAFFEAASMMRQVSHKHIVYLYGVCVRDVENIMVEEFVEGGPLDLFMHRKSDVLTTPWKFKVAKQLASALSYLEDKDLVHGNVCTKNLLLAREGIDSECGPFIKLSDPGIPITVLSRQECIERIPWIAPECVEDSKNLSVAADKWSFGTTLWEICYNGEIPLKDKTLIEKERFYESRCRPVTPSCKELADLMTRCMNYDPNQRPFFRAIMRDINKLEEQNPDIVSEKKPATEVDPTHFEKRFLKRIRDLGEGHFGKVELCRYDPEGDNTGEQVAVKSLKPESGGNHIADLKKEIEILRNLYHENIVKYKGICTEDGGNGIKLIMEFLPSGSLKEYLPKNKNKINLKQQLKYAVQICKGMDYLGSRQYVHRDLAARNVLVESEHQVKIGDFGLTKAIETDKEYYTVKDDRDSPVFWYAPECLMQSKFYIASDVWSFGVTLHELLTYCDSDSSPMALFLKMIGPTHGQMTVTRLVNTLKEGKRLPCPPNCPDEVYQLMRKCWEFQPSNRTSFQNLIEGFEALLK
# Experimental: The assay reactions were performed in U-bottom 384-well plates. The final assay volume was 30 μl prepared from 15 μl additions of enzyme and substrates (fluoresceinated peptide and ATP) and test compounds in assay buffer (20 mM HEPES pH 7.4, 10 mM MgCl2, 25 mM beta-glycerol phosphate, 0.015% Brij35 and 4 mM DTT). The reaction was initiated by the combination of GST-JAK1 enzyme with substrates and test compounds. The reactions were incubated at room temperature for 3 hours and terminated by adding 60 μl of 35 mM EDTA to each sample. Each reaction mixture was analyzed on the Caliper LabChip 3000 (Caliper, Hopkinton, Mass.) by electrophoretic separation of the fluorescent substrate and phosphorylated product. […] The final concentration of reagents in the assays was: ATP, 100 μM; fluoresceinated peptide, 1.5 μM; GST-JAK1, 12.5 nM; and DMSO, 1.6%. […] Compounds were dissolved at 10 mM in dimethylsulfoxide (DMSO) and evaluated at eleven concentrations. IC50 values were derived by non-linear regression analysis.
# JAK3 enzyme = target: T2, JAK3 enzyme (Homo sapiens, UniProt P52333); experiment: JAK3 Kinase Assay Protocol (Filter); conditions: 33P γ-ATP, 8 μM ATP, CSKtide substrate, read-out: LLE_JAK3_FB (IC50)
# T2 sequence (P52333 1-1124): T1 sequence (P52333 1-1124)
# Experimental: Kinase reactions consisted of 5 ng of JAK3 enzyme, 30 uM CSKtide substrate, 0.2 μCi ^33P γ-ATP, 8 μM ATP in 30 μl kinase buffer (50 mM Hepes, pH 8.0, 10 mM MgCl2, 1 mM EGTA, 2 mM DTT). Reactions were incubated for 30 minutes at room temperature and stopped by the addition of cold trichloroacetic acid (TCA) to a final concentration of 15%. TCA precipitates were collected onto 384 well phosphocellulose filters (Millipore) using a Platemate to transfer the reaction mixture, washed on an EMBLA plate washer and the filters were quantitated using a TopCount 384-well liquid scintillation counter. […] Compounds were dissolved at 10 mM in dimethylsulfoxide (DMSO) and evaluated at six concentrations, each in triplicate. The final concentration of DMSO in the assay equaled 2%. IC50 values were derived by non-linear regression analysis.
SMILES,IC50 (GST-JAK3 enzyme),IC50 (GST-JAK1 enzyme),IC50 (JAK3 enzyme)
"COc1ccc(-c2cc3c(N[C@H](C)c4ccccc4F)c(C(N)=O)cnn3c2)cn1 [Example 180, 4-(((1R)-1-(2-fluorophenyl)ethyl)amino)-6-(6-methoxy-3-pyridinyl)pyrrolo[1,2-b]pyridazine-3-carboxamide]",60.9 nM,1200 nM,13.5 nM
"CCCNc1c(C(N)=O)cnn2cc(-c3ccccc3)cc12 [Example 183, 6-phenyl-4-(propylamino)pyrrolo[1,2-b]pyridazine-3-carboxamide]",27.3 nM,37.3 nM,11 nM
"NC(=O)c1cnn2cc(-c3ccccc3)cc2c1NCC1(CO)CC1 [Example 189, 4-((1-(hydroxymethyl)cyclopropyl)methylamino)-6-phenylpyrrolo[1,2-b]pyridazine-3-carboxamide]",8.5 nM,21.5 nM,19.1 nM
"CNc1c(C(N)=O)cnn2cc(-c3cccc(CC#N)c3)cc12 [Example 191, 6-(3-(cyanomethyl)phenyl)-4-(methylamino)pyrrolo[1,2-b]pyridazine-3-carboxamide]",40.6 nM,72.3 nM,88 nM
"C[C@@H](Nc1c(C(N)=O)cnn2cc(-c3cnc(N)nc3)cc12)C1CC1 [Example 192, (R)-6-(2-aminopyrimidin-5-yl)-4-(1-cyclopropylethylamino)pyrrolo[1,2-b]pyridazine-3-carboxamide]",2.1 nM,13 nM,1.7 nM
"C[C@@H](Nc1c(C(N)=O)cnn2cc(-c3ccccc3)cc12)C(C)(C)C(N)=O [Example 194, (R)-4-(4-amino-3,3-dimethyl-4-oxobutan-2-ylamino)-6-phenylpyrrolo[1,2-b]-pyridazine-3-carboxamide]",1 nM,2.8 nM,1.3 nM
"CNc1nnc(-c2cc3c(N[C@H](C)C4CC4)c(C(N)=O)cnn3c2)o1 [Example 195, (R)-4-(1-cyclopropylethylamino)-6-(5-(methylamino)-1,3,4-oxadiazol-2-yl)pyrrolo[1,2-b]pyridazine-3-carboxamide]",8.4 nM,73.7 nM,5.3 nM
"C[C@@H](O)[C@@H](CO)Nc1c(C(N)=O)cnn2cc(-c3ccccc3)cc12 [Example 196, 4-((2R,3R)-1,3-dihydroxybutan-2-ylamino)-6-phenylpyrrolo[1,2-b]pyridazine-3-carboxamide]",3 nM,5.8 nM,1.3 nM
C[C@@H](Nc1c(C(N)=O)cnn2cc(-c3ccc(N)nc3)cc12)C1CC1 [Example 200],2.2 nM,4.8 nM,1.1 nM
CNC(=O)c1ccc(-c2cc3c(N[C@H](C)C4CC4)c(C(N)=O)cnn3c2)cn1 [Example 202],1.2 nM,3.8 nM,1.8 nM
C[C@@H](Nc1c(C(N)=O)cnn2cc(-c3cnc(NCCN(C)C)nc3)cc12)C1CC1 [Example 205],5.4 nM,110 nM,7.9 nM
"C[C@@H](Nc1c(C(N)=O)cnn2cc(-c3nnc(N4CCN(C)CC4)o3)cc12)C1(C)CC1 [Example 241, (R)-4-((1-(1-methylcyclopropyl)ethyl)amino)-6-(5-(4-methylpiperazin-1-yl)-1,3,4-oxadiazol-2-yl)pyrrolo[1,2-b]pyridazine-3-carboxamide]",1.8 nM,100 nM,2.3 nM

# Reference: US9221826B2, “Pyrrolopyridazine JAK3 inhibitors and their use for the treatment of inflammatory and autoimmune diseases” (Bristol-Myers Squibb Company, priority 2011, dated 2015)
